Assay [1] has as its target T1, Fructose-bisphosphate aldolase A (Oryctolagus cuniculus, UniProt P00883).
T1 sequence (P00883 whole entry): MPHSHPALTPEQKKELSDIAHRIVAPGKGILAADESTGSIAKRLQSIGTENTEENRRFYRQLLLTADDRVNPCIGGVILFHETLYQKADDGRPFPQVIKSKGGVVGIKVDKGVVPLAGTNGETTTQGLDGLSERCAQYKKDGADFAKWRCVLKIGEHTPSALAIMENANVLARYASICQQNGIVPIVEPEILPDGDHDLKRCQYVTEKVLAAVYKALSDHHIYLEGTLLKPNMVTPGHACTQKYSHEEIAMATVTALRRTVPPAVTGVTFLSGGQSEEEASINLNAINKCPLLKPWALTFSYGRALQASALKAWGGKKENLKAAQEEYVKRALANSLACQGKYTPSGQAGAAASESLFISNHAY
Put plainly: Inhibition of rabbit muscle FBA assessed as inhibition of FBP cleavage by spectrophotometry.

In assay [2] the target is T2, Fructose-bisphosphate aldolase, glycosomal (Trypanosoma brucei brucei, UniProt P07752).
T2 sequence (P07752 whole entry): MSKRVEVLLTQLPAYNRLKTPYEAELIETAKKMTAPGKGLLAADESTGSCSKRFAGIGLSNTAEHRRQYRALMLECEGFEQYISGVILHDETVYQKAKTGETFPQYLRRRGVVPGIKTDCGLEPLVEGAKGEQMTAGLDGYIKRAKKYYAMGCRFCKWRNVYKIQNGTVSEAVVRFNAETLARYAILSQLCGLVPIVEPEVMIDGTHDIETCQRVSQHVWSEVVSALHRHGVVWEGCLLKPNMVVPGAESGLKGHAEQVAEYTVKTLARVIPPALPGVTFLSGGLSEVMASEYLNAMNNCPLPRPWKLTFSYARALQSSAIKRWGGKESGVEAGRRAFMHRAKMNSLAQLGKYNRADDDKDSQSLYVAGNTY
Put plainly: Inhibition of His-tagged recombinant Trypanosoma brucei fructose bis-phosphate aldolase expressed in Escherichia coli using FBP as substrate after 5 to 15 mins.

Assay [3] has as its target T3, Fructose-bisphosphate aldolase, glycosomal (Trypanosoma brucei brucei) (UniProt P07752).
T3 sequence (whole entry): T2 sequence (P07752 whole entry)
The experiment in a line: Competitive inhibition of His-tagged recombinant Trypanosoma brucei fructose bis-phosphate aldolase expressed in Escherichia coli by double-reciprocal plot analysis.

The structures appear in SMILES notation. Calls of active or inactive are those of the source. No cut-off for these calls is given here.

Consider `CCCCC[C@@](O)(COP(=O)(O)O)[C@@H](O)[C@H](O)[C@H](O)COP(=O)(O)O`, for which the figures for the IC50 in assay [1] and in assay [2] were 17 µM and 15 µM, respectively. Further, the “inhibition mode (competitive)” value in assay [3] was “Active”.
As to `CO[C@H](COP(=O)(O)O)[C@@H](O)[C@H](O)[C@H](O)COP(=O)(O)O`, the 50% inhibitory concentration (IC50) was 7.5 µM in assay [1] and 2 µM in assay [2]. In addition, the “inhibition mode (competitive)” value in assay [3] is “Active”.
`O=P(O)(O)OC[C@@H](O)[C@@H](O)[C@H](O)[C@H](O)COP(=O)(O)O`: the IC50 was determined as 8 µM in assay [1] and 9.4 µM in assay [2].
As for `CC[C@@](O)(COP(=O)(O)O)[C@@H](O)[C@H](O)[C@H](O)COP(=O)(O)O`, the 50% inhibitory concentration (IC50) was found to be 244 µM in assay [1] and 130 µM in assay [2]. The “inhibition mode (competitive)” value in assay [3] was “Active”.
As to `O=P(O)(O)OC[C@@H](O)[C@@H](O)[C@H](O)[C@@H](COP(=O)(O)O)OCCCc1ccccc1`, the IC50 in assay [1] worked out at 21 µM; in assay [2] it was 31 µM. Also, the “inhibition mode (competitive)” value in assay [3] is “Active”.
In the case of `CCO[C@H](COP(=O)(O)O)[C@@H](O)[C@H](O)[C@H](O)COP(=O)(O)O`, the values for the IC50 in assay [1] and in assay [2] were 64 µM and 51 µM, respectively. For the same molecule, the “inhibition mode (competitive)” value in assay [3] was “Active”.
`CCCCCO[C@H](COP(=O)(O)O)[C@@H](O)[C@H](O)[C@H](O)COP(=O)(O)O`: the IC50 in assay [1] turned out to be 157 µM; in assay [2], 117 µM. For the same molecule, the “inhibition mode (competitive)” value in assay [3] is “Active”.
Regarding `O=C(COP(=O)(O)O)[C@@H](O)[C@H](O)[C@H](O)COP(=O)(O)O` (mixture of isomers), the results for the concentration for half-maximal inhibition (IC50) in assay [1] and in assay [2] were 13 µM and 10 µM, respectively.
On to `O=P(O)(O)OC[C@@H](O)[C@@H](O)[C@H](O)[C@@](O)(CCCc1ccccc1)COP(=O)(O)O`, for which the IC50 worked out at 137 µM in assay [1] and 56 µM in assay [2]. In addition, the “inhibition mode (competitive)” value in assay [3] is “Active”.

The record behind these values is ChEMBL document CHEMBL2016560, “Mannitol Bis-phosphate Based Inhibitors of Fructose 1,6-Bisphosphate Aldolases” (ACS Med Chem Lett, 2011).
